From article PMC6804157, “Synthesis, Physicochemical Properties, and Biological Activities of 4-(S-Methyl-N-(2,2,2-Trifluoroacetyl)Sulfilimidoyl) Anthranilic Diamide” (Molecules, 2019)
Several values for one entry are separate records, joined by “and”; a condition that tells them apart may be missing. Equal entries are not always repeated. Where two headings read alike, the source gives them in different places.

Legend:
[1] = tested on: third instar larvae of Spodoptera litura; assay: whole plant or invertebrate; type: in vivo; details: for mortality at 25 ppm / mortality at 50 ppm: Spodoptera litura
Experimental: For the practical test, newly-prepared compounds 14–16 were evaluated for their insecticidal activities against the third instar larvae of Spodoptera litura according to the reported leaf-dip method.
[35] According to the literature 3a, 3b, and 3d methods, the insecticidal assays were performed by Kyung Nong Co. Ltd., Korea. In detail, please see the Supplementary materials.
Table S1 and S2: Larvicidal activity against Spodoptera (14 and 15a)
The lavicidal activities of synthesized compounds were evaluated by the leaf-dip procedure. 6 The aqueous solution of prepared compounds and chlorantraniliprole in acetone (H 2O : acetone = 95 : 5) were sprayed to a cabbage leave placed on moistened filter paper (disc, diameter 8.8 cm) in petri dishes. After allowing to dry, the dishes were infested with 10 Spodoptera litura (third-instar). After 1, 2, 3, and 4 days, percentage of mortalities was evaluated. The treatments were replicated three times. For negative control, larvicidal activities were 0 % at each time. Ref. is chlorantraniliprole as a positive control.
Table S1. Larvicidal activity depend on time against the 3 rd instar larvae of Spodoptera litura
Entry Compd Concentration Larvicidal activity (%) at 24 h
Entry Compd Concentration Larvicidal activity (%) at 48 h

[2] = Equilibrium solubility (μSOL); type: physicochemical; details: 25 °C, thermodynamic from solid
Experimental: (§1) Because we believed that the physicochemical properties of newly-prepared diamides play important roles in their insecticidal activities, the studies were extended to investigate the bioavailability of organosulfur-based crop-protecting agents 14, 15a, 15b, 16a, and 16b in terms of plant systemic properties and membrane permeability. As references, their properties of chlorantraniliprole and cyantraniliprole were also measured.
(§2) [37] The physicochemical measurements for determinations of equilibrium solubility, log P, and PAMPA permeability were performed by Drug Discovery Platform Technology Team, KRICT, Korea.
(§3) Table S3. Physical properties of organosulfur-substituted anthranilic […]
(§4) Entry X Y Log P c,d Permeability e […]
(§5) aMethod for determination of equilibrium solubility: μSOL 25; bat 25 ℃ and pH 7.4; cUsing ACD / Labs T3 method (pH – metric); dfor graphs, please see the supporting information, eMethod for determination of […]

[3] = pH-metric log P (ACD/Labs T3 method); type: physicochemical
Experimental: as §1
[39] For LogP, Using ACD/Labs T3 method (pH—metric), for graphs; please see the Supplementary materials.
as §3, §4, §5

[4] = type: in vitro ADME; details: PAMPA
Experimental: as §1, §2, §3, §4, §5

[5] = 24 h, read-out: Larvicidal activity (%) at 24 h, Average, 24 h, 50 ppm, average of three replicates
[6] = 24 h, read-out: Larvicidal activity (%) at 24 h, replicate 1, 24 h, 50 ppm
[7] = 24 h, read-out: Larvicidal activity (%) at 24 h, replicate 2, 24 h, 50 ppm
[8] = 24 h, read-out: Larvicidal activity (%) at 24 h, replicate 3, 24 h, 50 ppm
[9] = 48 h, read-out: Larvicidal activity (%) at 48 h, Average, 48 h, 50 ppm, average of three replicates
[10] = 48 h, read-out: Larvicidal activity (%) at 48 h, replicate 1, 48 h, 50 ppm
[11] = 48 h, read-out: Larvicidal activity (%) at 48 h, replicate 2, 48 h, 50 ppm
[12] = 48 h, read-out: Larvicidal activity (%) at 48 h, replicate 3, 48 h, 50 ppm
[13] = 72 h, read-out: Larvicidal activity (%) at 72 h, replicate 1, 72 h, 50 ppm
[14] = 72 h, read-out: Larvicidal activity (%) at 72 h, replicate 2, 72 h, 50 ppm
[15] = 72 h, read-out: Larvicidal activity (%) at 72 h, replicate 3, 72 h, 50 ppm
[16] = 96 h, read-out: Larvicidal activity (%) at 96 h, replicate 1, 96 h, 50 ppm
[17] = 96 h, read-out: Larvicidal activity (%) at 96 h, replicate 2, 96 h, 50 ppm
[18] = 96 h, read-out: Larvicidal activity (%) at 96 h, replicate 3, 96 h, 50 ppm
[19] = read-out: Larvicidal Activity (%) at Time (h) 72 h, third instar larvae of S. litura, 72 h, concentration of 14 and 15a 50 ppm
[20] = read-out: Larvicidal Activity (%) at Time (h) 96 h, third instar larvae of S. litura, 96 h, concentration of 14 and 15a 50 ppm
[21] = third instar larvae of S. litura, 96 h, concentration of 14 and 15a 50 ppm

## CNC(=O)c1cc(Cl)cc(C)c1NC(=O)c1cc(Br)nn1-c1ncccc1Cl [Chlorantraniliprole, chlorantraniliprole, reference compound]
[1]; 25 ppm
  Eating area (%): 0–5%
[1]; 24 h, read-out: Larvicidal activity (%) at 24 h, replicate 2, 24 h, 25 ppm
  mortality at 25 ppm: 30%
[1]; 48 h, read-out: Larvicidal activity (%) at 48 h, Average, 48 h, 25 ppm, average of three replicates
  mortality at 25 ppm: 86.7%
[1]; 48 h, read-out: Larvicidal activity (%) at 48 h, replicate 1, 48 h, 25 ppm
  mortality at 25 ppm: 90%
[1]; 48 h, read-out: Larvicidal activity (%) at 48 h, replicate 2, 48 h, 25 ppm
  mortality at 25 ppm: 80%
[1]; 48 h, read-out: Larvicidal activity (%) at 48 h, replicate 3, 48 h, 25 ppm
  mortality at 25 ppm: 90%
[1]; 72 h, read-out: Larvicidal activity (%) at 72 h, Average, 72 h, 25 ppm, average of three replicates
  mortality at 25 ppm: 100%
[1]; 72 h, read-out: Larvicidal activity (%) at 72 h, replicate 1, 72 h, 25 ppm
  mortality at 25 ppm: 100%
[1]; 72 h, read-out: Larvicidal activity (%) at 72 h, replicate 2, 72 h, 25 ppm
  mortality at 25 ppm: 100%
[1]; 72 h, read-out: Larvicidal activity (%) at 72 h, replicate 3, 72 h, 25 ppm
  mortality at 25 ppm: 100%
[1]; 96 h, read-out: Larvicidal activity (%) at 96 h, Average, 96 h, 25 ppm, average of three replicates
  mortality at 25 ppm: 100%
[1]; 96 h, read-out: Larvicidal activity (%) at 96 h, replicate 1, 96 h, 25 ppm
  mortality at 25 ppm: 100%
[1]; 96 h, read-out: Larvicidal activity (%) at 96 h, replicate 2, 96 h, 25 ppm
  mortality at 25 ppm: 100%
[1]; 96 h, read-out: Larvicidal activity (%) at 96 h, replicate 3, 96 h, 25 ppm
  mortality at 25 ppm: 100%
[1]; read-out: Larvicidal activity (%) at 24 h, replicate 2, 24 h, 25 ppm, listed as Ref.
  mortality: 20%
[1]; read-out: Larvicidal activity (%) at 48 h, Average, 48 h, 25 ppm, average of three replicates, listed as Ref.
  mortality: 66.7%
[1]; read-out: Larvicidal activity (%) at 48 h, replicate 2, 48 h, 25 ppm, listed as Ref.
  mortality: 70%
[1]; read-out: Larvicidal activity (%) at 72 h, Average, 72 h, 25 ppm, average of three replicates
  mortality: 100%
[1]; read-out: Larvicidal activity (%) at 72 h, replicate 1, 72 h, 25 ppm
  mortality: 100%
[1]; read-out: Larvicidal activity (%) at 72 h, replicate 2, 72 h, 25 ppm
  mortality: 100%
[1]; read-out: Larvicidal activity (%) at 72 h, replicate 3, 72 h, 25 ppm
  mortality: 100%
[1]; read-out: Larvicidal activity (%) at 96 h, Average, 96 h, 25 ppm, average of three replicates
  mortality: 100%
[1]; read-out: Larvicidal activity (%) at 96 h, replicate 1, 96 h, 25 ppm
  mortality: 100%
[1]; read-out: Larvicidal activity (%) at 96 h, replicate 2, 96 h, 25 ppm
  mortality: 100%
[1]; read-out: Larvicidal activity (%) at 96 h, replicate 3, 96 h, 25 ppm
  mortality: 100%
[2]; aqueous buffer, μSOL, at 25 ℃ and pH 7.4, read-out: Solubility (Equilibrium)
  solubility: 21.5 ± 1.59 µM
[2]; pH 7.4, aqueous buffer
  solubility: 10.4 ± 0.771 µg/mL
[3]; ACD/Labs T3 method (pH-metric), read-out: Log P
  logP: 5.25
[4]
  Permeability: - 4.3 ± 0.046

## CNC(=O)c1cc(SC)cc(C)c1NC(=O)c1cc(Br)nn1-c1ncccc1Cl [Compound 14, 3-Bromo-1-(3-chloropyridin-2-yl)-N-(2-methyl-6-(methylcarbamoyl)-4-(methylthio)phenyl)-1H-pyrazole-5-carboxamide]
[1]; [5]
  mortality at 50 ppm: 0%
[1]; [6]
  mortality at 50 ppm: 0%
[1]; [7]
  mortality at 50 ppm: 0%
[1]; [8]
  mortality at 50 ppm: 0%
[1]; [9]
  mortality at 50 ppm: 13.3%
[1]; [10]
  mortality at 50 ppm: 20%
[1]; [11]
  mortality at 50 ppm: 0%
[1]; [12]
  mortality at 50 ppm: 20%
[1]; [13]
  mortality at 50 ppm: 70%
[1]; [14]
  mortality at 50 ppm: 30%
[1]; [15]
  mortality at 50 ppm: 40%
[1]; [16]
  mortality at 50 ppm: 80%
[1]; [17]
  mortality at 50 ppm: 70%
[1]; [18]
  mortality at 50 ppm: 70%
[1]; [19]
  mortality: 46.7%
[1]; [20]
  mortality: 73.3%
[1]; [21]
  Eating Area (%) 96 h: 5–10%
[2]; pH 7.4, aqueous buffer
  solubility: 5.4 µM and 2.67 µg/mL
[3]
  logP: 3.45
[4]
  Permeability: - 4.3 ± 0.047

## CNC(=O)c1cc(S(C)=NC(=O)C(F)(F)F)cc(C)c1NC(=O)c1cc(Br)nn1-c1ncccc1Cl (stereo not drawn) [Compound 15a, 3-Bromo-1-(3-chloropyridin-2-yl)-N-(2-methyl-4-(S-methyl-N-(2,2,2-trifluoroacetyl)sulfinimidoyl)-6-(methylcarbamoyl)phenyl)-1H-pyrazole-5-carboxamide]
[1]; [5]
  mortality at 50 ppm: 0%
[1]; [6]
  mortality at 50 ppm: 0%
[1]; [7]
  mortality at 50 ppm: 0%
[1]; [8]
  mortality at 50 ppm: 0%
[1]; [9]
  mortality at 50 ppm: 0%
[1]; [10]
  mortality at 50 ppm: 0%
[1]; [11]
  mortality at 50 ppm: 0%
[1]; [12]
  mortality at 50 ppm: 0%
[1]; 72 h, read-out: Larvicidal Activity (%) at Time (h) 72 h, third instar larvae of S. litura, 72 h, concentration of 14 and 15a 50 ppm
  mortality at 50 ppm: 46.7%
[1]; [13]
  mortality at 50 ppm: 50%
[1]; [14]
  mortality at 50 ppm: 40%
[1]; [15]
  mortality at 50 ppm: 50%
[1]; 96 h, read-out: Larvicidal Activity (%) at Time (h) 96 h, third instar larvae of S. litura, 96 h, concentration of 14 and 15a 50 ppm
  mortality at 50 ppm: 53.3%
[1]; [16]
  mortality at 50 ppm: 50%
[1]; [17]
  mortality at 50 ppm: 50%
[1]; [18]
  mortality at 50 ppm: 60%
[1]; [21]
  Eating Area (%) 96 h: 5–10%
[2]; pH 7.4, aqueous buffer
  solubility: 397 µM and 241 µg/mL
[3]
  logP: 3.74
[4]
  Permeability: - 4.5 ± 0.059

## CNC(=O)c1cc([S+](C)[O-])cc(C)c1NC(=O)c1cc(Br)nn1-c1ncccc1Cl (stereo not drawn) [Compound 15b, 3-bromo-1-(3-chloropyridin-2-yl)-N-(2-methyl-6-(methylcarbamoyl)-4-(methylsulfinyl)phenyl)-1H-pyrazole-5-carboxamide]
[1]; [19]
  mortality: 0%
[1]; [20]
  mortality: 0%
[1]; [21]
  Eating Area (%) 96 h: >30%
[2]; pH 7.4, aqueous buffer
  solubility: 486 µM and 248 µg/mL
[3]
  logP: 2.59
[4]
  Permeability: - 4.8 ± 0.037

## CNC(=O)c1cc(S(C)(=O)=NC(=O)C(F)(F)F)cc(C)c1NC(=O)c1cc(Br)nn1-c1ncccc1Cl (stereo not drawn) [Compound 16a, 3-Bromo-1-(3-chloropyridin-2-yl)-N-(2-methyl-4-(S-methyl-N-(2,2,2-trifluoroacetyl)sulfonimidoyl)-6-(methylcarbamoyl)phenyl)-1H-pyrazole-5-carboxamide]
[1]; [19]
  mortality: 0%
[1]; [20]
  mortality: 0%
[1]; [21]
  Eating Area (%) 96 h: >30%
[2]; pH 7.4, aqueous buffer
  solubility: 397 µM and 247 µg/mL
[3]
  logP: 4.95
[4]
  Permeability: - 4.7 ± 0.075

## CNC(=O)c1cc(S(C)(=O)=O)cc(C)c1NC(=O)c1cc(Br)nn1-c1ncccc1Cl [Compound 16b, 3-Bromo-1-(3-chloropyridin-2-yl)-N-(2-methyl-6-(methylcarbamoyl)-4-(methylsulfonyl)phenyl)-1H-pyrazole-5-carboxamide]
[1]; [19]
  mortality: 0%
[1]; [20]
  mortality: 0%
[1]; [21]
  Eating Area (%) 96 h: >30%
[2]; pH 7.4, aqueous buffer
  solubility: 124 µM and 65.6 µg/mL
[3]
  logP: 3.04
[4]
  Permeability: - 4.5 ± 0.030

## CNC(=O)c1cc(C#N)cc(C)c1NC(=O)c1cc(Br)nn1-c1ncccc1Cl [Cyantraniliprole, cyantraniliprole, reference compound]
[2]; pH 7.4, aqueous buffer
  solubility: 378 µM and 179 µg/mL
[3]
  logP: 3.5
[4]
  Permeability: - 4.4 ± 0.077
